Reference: patent publication US20240252456A1, “ORAL COMPOSITION, SKIN COSMETIC AND HAIR COSMETIC” (MARUZEN PHARMACEUTICALS CO., LTD., priority 2021, published 2024)

Columns and labels:
[1] = tested on: cyclic AMP phosphodiesterase; test: Cyclic AMP phosphodiesterase activity inhibitory action test; assay type: biochemical
Description: To 0.2 mL of 50 mmol/L Tris-HCl buffer solution (pH 7.5) containing 5 mmol/L magnesium chloride, 0.1 mL of 2.5 mg/mL bovine serum albumin solution, 0.1 mL of 0.1 mg/mL cyclic AMP phosphodiesterase solution, and 0.05 mL of the test sample solution (Sample 1, see Table 2 below for final concentration) were added, and the mixture was statically placed at 37° C. for 5 minutes. Then, 0.05 mL of 0.5 mg/mL cyclic AMP solution was added, and the mixture was reacted at 37° C. for 60 minutes. After the reaction was completed, the reaction was stopped by boiling in a boiling water bath for 3 minutes, and then centrifugal separation was applied (2260×g, 10 minutes, 4° C.). Cyclic AMP, a reaction substrate in the supernatant, was analyzed under the following high-performance liquid chromatography conditions. In addition, as a control, the same operation was performed by adding only the solvent to which no sample was added.
• Product name: Chromatocorder 12 (available from SYSTEM INSTRUMENTS) • Stationary phase: Wakosil C18-ODS 5 μm (available from FUJIFILM Wako Pure Chemical Corporation) • Column length: 250 mm • Mobile phase: 1 mmol/L TBAP in 25 mmol/L KH2PO4: CH3CN=90:10 • Mobile phase flow rate: 1.0 mL/min • Detection: 260 nm
Then, a peak area (A) of a cyclic AMP standard product, a peak area (B1) of the supernatant reaction solution of the cyclic AMP standard product and the cyclic AMP phosphodiesterase when no sample was added, and a peak area (B2) of the supernatant reaction solution of the cyclic AMP standard product and the cyclic AMP phosphodiesterase when the test sample was added were obtained. From the obtained results, a decomposition rate (C) of the cyclic AMP standard product when no sample was added and a decomposition rate (D) of the cyclic AMP standard product when the test sample was added were calculated using the following equations.
After that, the cyclic AMP phosphodiesterase activity inhibition rate (%) was calculated from the following equation based on each decomposition rate (C, D) calculated from the above equations.

[2] = tested on: Normal human dermal fibroblasts (NB1RGB); test: Type I collagen production promotive action test; assay type: cell-based; settings: 3 days, A/B×100 vs no sample
Description: Normal human dermal fibroblasts (NB1RGB) were cultured using Dulbecco's modified Eagle's medium (DMEM) containing 10% FBS, and then the cells were collected by a trypsin treatment. The collected cells were diluted with DMEM containing 0.25% FBS to a cell density of 1.6×10^5 cells/mL, then seeded with 100 μL per well in a 96-well microplate, and cultured overnight.
After the culturing was completed, 100 μL of the test sample (Sample 1, see Table 6 below for final concentration) dissolved in DMEM containing 0.25% FBS was added to each well, and culturing was performed for 3 days. As a control, culturing was performed in the same manner using DMEM containing 0.25% FBS to which no sample was added. After culturing, the amount of type I collagen in the medium of each well was measured by ELISA method. From the measurement results, the type I collagen production promotion rate (%) was calculated using the following equation.
Type I collagen production promotion rate (%)=A/B×100
Terms in the equation represent the following respective ones. • A: Type I collagen amount with test sample addition • B: Type I collagen amount without sample addition

[3] = tested on: Normal human neonatal epidermal keratinocytes (NHEK); test: Laminin-332 production promotive action test; assay type: cell-based; settings: 25 μmol/L, 48 hours, A/B×100 vs no sample
Description: Normal human neonatal epidermal keratinocytes (NHEK) were precultured in a 75 cm^2 flask using normal human epidermal keratinocyte growth medium (KGM), and the cells were collected by a trypsin treatment. The collected cells were diluted with a medium obtained by removing BPE from KGM (KGM-BPE) to a cell density of 1.0×10^5 cells/mL, then seeded with 500 μL per well in a 24-well plate, and cultured for 1 day.
After the culturing was completed, the medium was removed, and 500 μL of the test sample (Sample 1, see Table 11 below for final concentration) dissolved in KGM-BPE was added to each well, and culturing was performed for 48 hours. As a control, culturing was performed in the same manner using KGM-BPE to which no sample was added. After the culturing was completed, 100 μL of the medium supernatant was transferred to an ELISA plate and adsorbed to the plate at 37° C. for 2 hours, and then the amount of adsorbed laminin-332 was measured by ELISA method. From the obtained measurement results, the laminin-332 production promotion rate (%) was calculated using the following equation.
Laminin-332 production promotion rate (%)=A/B×100
Terms in the equation represent the following respective ones. • A: Laminin-332 amount with test sample addition • B: Laminin-332 without sample addition

tyrosinase = test: Tyrosinase activity inhibitory action test; assay type: biochemical
Description: In a 48-well plate, 0.2 mL of McIlvaine buffer solution (pH 6.8), 0.06 mL of 0.3 mg/mL tyrosine solution, and 0.18 mL of the test sample (Sample 3, see Table 4 below for final concentration) dissolved in 25% DMSO solution were added, and they were statically placed at 37° C. for 10 minutes. To this, 0.02 mL of 1000 units/mL tyrosinase solution was added, followed by reaction at 37° C. for 15 minutes. After the reaction was completed, the absorbance at a wavelength of 475 nm was measured. As a blank, the same operation and absorbance measurement were performed in the case in which no enzyme solution was added. Furthermore, as a control, the same measurement was performed in the case in which 25% DMSO solution was added without adding the sample solution. From the obtained measurement results, the tyrosinase activity inhibition rate (%) was calculated using the following equation. [formula] Terms in the equation represent the following respective ones. • A: Absorbance at wavelength 475 nm with test sample addition and enzyme addition • B: Absorbance at wavelength 475 nm with test sample addition and without enzyme addition • C: Absorbance at wavelength 475 nm without sample addition and with enzyme addition • D: Absorbance at wavelength 475 nm without sample addition and without enzyme addition

For `O=C(O)CCc1ccc(O)c(O)c1` [Sample 1, 3,4-Dihydroxyhydrocinnamic acid], the “cAMP phosphodiesterase activity inhibition rate” value ([1]; 500 μmol/L) was 42.0%, the “cAMP phosphodiesterase activity inhibition rate” value ([1]; 1000 μmol/L) was 46.8% and the “cAMP phosphodiesterase activity inhibition rate” value ([1]; 2000 μmol/L) was 55.3%. For the same compound, the “Type I collagen production promotion rate” value ([2]; 15.6 μmol/L) was 107.4%, the “Type I collagen production promotion rate” value ([2]; 62.5 μmol/L) was 112.8% and the “Laminin-332 production promotion rate” value [3] was 142. 0%.

With `O=C(O)CCc1ccccc1` [Sample 3, 3-phenylpropionic acid] the “Tyrosinase activity inhibition rate” value (tyrosinase; 125 μmol/L) was 4.4%, the “Tyrosinase activity inhibition rate” value (tyrosinase; 250 μmol/L) was 9.6% and the “Tyrosinase activity inhibition rate” value (tyrosinase; 500 μmol/L) was 15.2%. The “Tyrosinase activity inhibition rate” value (tyrosinase; 1000 μmol/L) was 22.8%.
